We go through 11 molecules from patent publication US12521393B2, “Cytotoxicity targeting chimeras for CCR2-expressing cells” (GLAXOSMITHKLINE INTELLECTUAL PROPERTY DEVELOPMENT LIMITED, priority 2021, dated 2026).

Counter-ions that a name gives are not always drawn.

The subject of this assay is endogenous target monocytes in human PBMC. The experiment in a line: PBMC ex vivo monocyte depletion flow cytometry assay (Example 200). Type of assay: cell-based. Conditions: with anti-cotinine antibody (SEQ ID NO: 11/12), 18-24 hours, EC50 in molar, read-out: Ex Vivo Depletion Assay pEC50 (converted). As to the method: A human PBMC (peripheral blood mononuclear cells) monocyte depletion flow cytometry assay was developed to screen compounds in a 384-well plate format. This assay incorporated endogenous natural killer cells to deplete endogenous target monocytes.
To screen compounds in the human PBMC monocyte depletion flow cytometry assay, 11-point dose-response curves were made from 1 mM stocks in neat DMSO by serially diluting an ARM compound of Formula (I) four-fold into a 384-well plate row-wise. These serially diluted compounds were then stamped into a flat bottom polypropylene 384-well plate (Greiner Bio-One) at 100 nL/well. Fifty microliters of 30 μg/mL anti-cotinine antibody having a heavy chain sequence of SEQ ID NO: 11 and a light chain sequence of SEQ ID NO: 12 (rabbit variable region with human IgG1 Fc domain containing a DE mutation (S239D/1332E)) that had been diluted in assay medium (RPMI 1640 (Gibco) containing 10% fetal bovine serum (Gibco), 1% Glutamax (Gibco) and 1% sodium pyruvate (Corning) was added to the wells of the plate. The plate was centrifuged for 1 min at 500 rpm (revolutions per minute) and then shaken for 5 min at room temperature. The plate was incubated for 15 minutes at 37° C./5% CO2.
Frozen PBMC cells (HemaCare BioResearch) were thawed and centrifuged at 1,200 rpm for 4 minutes. The cells were diluted to a cell density of 2×10^6 cells/mL in assay medium. Fifty microliters of the diluted cells were added to the wells of the plate. The plate was centrifuged for 1 min at 500 rpm and incubated for 18-24 hours at 37° C./5% CO2.
After 18-24 hours incubation, 2 μL of 6.25 μg human FC block (BD Pharmingen) that was diluted in assay medium was added to the wells of the plate. The plate was centrifuged for 1 minute at 500 rpm and then incubated at room temperature for 15 minutes. Five microliters of 750 nM Helix NP NIR (Biolegend) that had been diluted in assay medium was added to the wells of the plate. Nine microliters of antibody cocktail containing 1/5 diluted fluorescein isothiocyanate (FITC) labeled anti-CD45 antibody (Beckman Coulter), PC7 labeled anti-CD14 antibody (Beckman Coulter) and phyocoerythrin (PE) anti-CD4 antibody (Beckman Coulter) was then added to the wells of the plate. The plate was centrifuged for 1 min at 500 rpm and incubated for 30 minutes at 4-8° C. Samples from the plate were run on BD FACS Canto II flow cytometer and data was analyzed using FlowJo software.
ARMs compounds of Formula (I) of the invention were tested for the ability to deplete monocytes in the above assay in one or more experimental runs and the results are shown in Table 3 below. Potency of the compounds of the invention is reported as a pEC50 value. The pEC50 value is the negative log of the EC50 value, wherein the EC50 value is the half maximal effective concentration measured in molar (M). For compounds tested in more than one experimental run, the pEC50 value is reported as an average or as the individual values measured
On the technique in general: In flow cytometry, cells or beads pass a laser one at a time.

On to `CC(C)N(C)[C@@H]1CC[C@H](N2CC[C@H](Nc3ncnc4ccc(C(F)(F)F)cc34)C2=O)[C@H](NC(=O)CCCNC(=O)CCCC(=O)NCCCOCCCNC(=O)C2CC(=O)N(C)C2c2cccnc2)C1` (stereo in doubt) [Example 21, N1-(4-(((1R,2S,5R)-5-(Isopropyl(methyl)amino)-2-((S)-2-oxo-3-((6-(trifluoromethyl)quinazolin-4-yl)amino)pyrrolidin-1-yl)cyclohexyl)amino)-4-oxobutyl)-N5-(3-(3-((2S,3S)-1-methyl-5-oxo-2-(pyridin-3-yl)pyrrolidine-3-carboxamido)propoxy)propyl)glutaramide], for which the EC50 was 0.631 nM. The figure for `CC(C)N(C)[C@@H]1CC[C@H](N2CC[C@H](Nc3ncnc4ccc(C(F)(F)F)cc34)C2=O)[C@H](NC(=O)CCCCCCCCNCCCCCCCCCCNC(=O)[C@H]2CC(=O)N(C)[C@@H]2c2cccnc2)C1` [Example 196, (2S,3S)-N-(10-((9-(((1R,2S,5R)-5-(Isopropyl(methyl)amino)-2-((S)-2-oxo-3-((6-(trifluoromethyl)quinazolin-4-yl)amino)pyrrolidin-1-yl)cyclohexyl)amino)-9-oxononyl)amino)decyl)-1-methyl-5-oxo-2-(pyridin-3-yl)pyrrolidine-3-carboxamide, 3Formic acid salt.] is 0.2 nM. For `CC(C)N(C)[C@@H]1CC[C@H](N2CC[C@H](Nc3ncnc4ccc(C(F)(F)F)cc34)C2=O)[C@H](NC(=O)COCCNC(=O)CNC(=O)COCCOCCNC(=O)[C@H]2CC(=O)N(C)[C@@H]2c2cccnc2)C1` [Example 78, (2S,3S)-N-(1-(((1R,2S,5R)-5-(Isopropyl(methyl)amino)-2-((S)-2-oxo-3-((6-(trifluoromethyl)quinazolin-4-yl)amino)pyrrolidin-1-yl)cyclohexyl)amino)-1,7,10-trioxo-3,12,15-trioxa-6,9-diazaheptadecan-17-yl)-1-methyl-5-oxo-2-(pyridin-3-yl)pyrrolidine-3-carboxamide], the EC50 is 2.51 nM.

With `CC(C)N(C)[C@@H]1CC[C@H](N2CC[C@H](Nc3ncnc4ccc(C(F)(F)F)cc34)C2=O)[C@H](NC(=O)COCC(=O)N2CCN(C(=O)N3CCN(C(=O)COCCNC(=O)[C@H]4CC(=O)N(C)[C@@H]4c4cccnc4)CC3)CC2)C1` [Example 84, (2S,3S)-N-(2-(2-(4-(4-(2-(2-(((1R,2S,5R)-5-(isopropyl(methyl)amino)-2-((S)-2-oxo-3-((6-(trifluoromethyl)quinazolin-4-yl)amino)pyrrolidin-1-yl)cyclohexyl)amino)-2-oxoethoxy)acetyl)piperazine-1-carbonyl)piperazin-1-yl)-2-oxoethoxy)ethyl)-1-methyl-5-oxo-2-(pyridin-3-yl)pyrrolidine-3-carboxamide], the EC50 is 1 nM. As for `CC(C)N(C)[C@@H]1CC[C@H](N2CC[C@H](Nc3ncnc4ccc(C(F)(F)F)cc34)C2=O)[C@H](NC(=O)[C@H]2CC[C@@H](NC(=O)CCCOCCCOCCCNC(=O)[C@H]3CC(=O)N(C)[C@@H]3c3cccnc3)CC2)C1` [Example 193, (2S,3S)-N-(3-(3-(4-(((1S,4s)-4-(((1R,2S,5R)-5-(Isopropyl(methyl)amino)-2-((S)-2-oxo-3-((6-(trifluoromethyl)quinazolin-4-yl)amino)pyrrolidin-1-yl)cyclohexyl)carbamoyl)cyclohexyl)amino)-4-oxobutoxy)propoxy)propyl)-1-methyl-5-oxo-2-(pyridin-3-yl)pyrrolidine-3-carboxamide], the figure is 0.2 nM; as for `CC(C)N(C)[C@@H]1CC[C@H](N2CC[C@H](Nc3ncnc4ccc(C(F)(F)F)cc34)C2=O)[C@H](NC(=O)c2ccc([C@H]3CC[C@@H](C(=O)NCCOCCOCCNC(=O)[C@H]4CC(=O)N(C)[C@@H]4c4cccnc4)CC3)cc2)C1` [Example 133, (2S,3S)-N-(2-(2-(2-((1S,4s)-4-(4-(((1R,2S,5R)-5-(Isopropyl(methyl)amino)-2-((S)-2-oxo-3-((6-(trifluoromethyl)quinazolin-4-yl)amino)pyrrolidin-1-yl)cyclohexyl)carbamoyl)phenyl)cyclohexane-1-carboxamido)ethoxy)ethoxy)ethyl)-1-methyl-5-oxo-2-(pyridin-3-yl)pyrrolidine-3-carboxamide], 1.26 nM. The figure for `CC(C)N(C)[C@@H]1CC[C@H](N2CC[C@H](Nc3ncnc4ccc(C(F)(F)F)cc34)C2=O)[C@H](NC(=O)[C@H]2C[C@H](NC(=O)CCOCCNC(=O)CCOCCNC(=O)[C@@H]3CC(=O)N(C)[C@H]3c3cccnc3)C2)C1` [Example 45, (2S,3S)-N-(2-(3-((2-(3-(((1R,3r)-3-(((1R,2S,5R)-5-(Isopropyl(methyl)amino)-2-((S)-2-oxo-3-((6-(trifluoromethyl)quinazolin-4-yl)amino)pyrrolidin-1-yl)cyclohexyl)carbamoyl)cyclobutyl)amino)-3-oxopropoxy)ethyl)amino)-3-ixopropoxy)ethyl)-1-methyl-5-oxo-2-(pyridin-3-yl)pyrrolidine-3-carboxamide] is 2 nM; for `CC(C)N(C)[C@@H]1CC[C@H](N2CC[C@H](Nc3ncnc4ccc(C(F)(F)F)cc34)C2=O)[C@H](NC(=O)c2cnn(C3CCN(CCOCCOCCNC(=O)[C@H]4CC(=O)N(C)[C@@H]4c4cccnc4)CC3)c2)C1` [Example 92, N-((1R,2S,5R)-5-(Isopropyl(methyl)amino)-2-((S)-2-oxo-3-((6-(trifluoromethyl)quinazolin-4-yl)amino)pyrrolidin-1-yl)cyclohexyl)-1-(1-(2-(2-(2-((2S,3S)-1-methyl-5-oxo-2-(pyridin-3-yl)pyrrolidine-3-carboxamido)ethoxy)ethoxy)ethyl)piperidin-4-yl)-1H-pyrazole-4-carboxamide] it is 25.1 nM; for `CC(C)N(C)[C@@H]1CC[C@H](N2CC[C@H](Nc3ncnc4ccc(C(F)(F)F)cc34)C2=O)[C@H](NC(=O)[C@H]2CC[C@H](N3CCC(C(=O)NCCOCCOCCNC(=O)[C@H]4CC(=O)N(C)[C@@H]4c4cccnc4)CC3)CC2)C1` [Example 135, 1-((1R,4r)-4-(((1R,2S,5R)-5-(Isopropyl(methyl)amino)-2-((S)-2-oxo-3-((6-(trifluoromethyl)quinazolin-4-yl)amino)pyrrolidin-1-yl)cyclohexyl)carbamoyl)cyclohexyl)-N-(2-(2-(2-((2S,3S)-1-methyl-5-oxo-2-(pyridin-3-yl)pyrrolidine-3-carboxamido)ethoxy)ethoxy)ethyl)piperidine-4-carboxamide 3Formic acid salt] it is 1.58 nM.

Consider `CC(C)N(C)[C@@H]1CC[C@H](N2CC[C@H](Nc3ncnc4ccc(C(F)(F)F)cc34)C2=O)[C@H](NC(=O)C2CCC(N3CC(C(=O)NCCOCCOCCNC(=O)[C@H]4CC(=O)N(C)[C@@H]4c4cccnc4)C3)CC2)C1` (stereo partly drawn) [Example 131, (2S,3S)-N-(2-(2-(2-(1-(4-(((1R,2S,5R)-5-(Isopropyl(methyl)amino)-2-((S)-2-oxo-3-((6-(trifluoromethyl)quinazolin-4-yl)amino)pyrrolidin-1-yl)cyclohexyl)carbamoyl)cyclohexyl)azetidine-3-carboxamido)ethoxy)ethoxy)ethyl)-1-methyl-5-oxo-2-(pyridin-3-yl)pyrrolidine-3-carboxamide], for which the EC50 is 0.501 nM. The figure for `CC(C)N(C)[C@@H]1CC[C@H](N2CC[C@H](Nc3ncnc4ccc(C(F)(F)F)cc34)C2=O)[C@H](NC(=O)C2CC=C(c3ccc(OCCCCCCNC(=O)[C@H]4CC(=O)N(C)[C@@H]4c4cccnc4)cc3)CC2)C1` (stereo partly drawn) [Example 158, (2S,3S)-N-(6-((4′-(((1R,2S,5R)-5-(Isopropyl(methyl)amino)-2-((S)-2-oxo-3-((6-(trifluoromethyl)quinazolin-4-yl)amino)pyrrolidin-1-yl)cyclohexyl)carbamoyl)-2′,3′,4′,5′-tetrahydro-[1,1′-biphenyl]-4-yl)oxy)hexyl)-1-methyl-5-oxo-2-(pyridin-3-yl)pyrrolidine-3-carboxamide] is 0.501 nM.
